# Measurements: PMC7037682, “Herb–Drug Interaction of Red Ginseng Extract and Ginsenoside Rc with Valsartan in Rats” (Molecules, 2020)
# Like-named read-outs stand apart in the source and are kept apart here.
# How the values were obtained:
# [1] = biological target: T1, OAT1 (Homo sapiens, UniProt Q4U2R8); experiment: Inhibition of OAT1-mediated [3H]PAH uptake in HEK293-OAT1 cells
# T1 sequence (Q4U2R8 1-563): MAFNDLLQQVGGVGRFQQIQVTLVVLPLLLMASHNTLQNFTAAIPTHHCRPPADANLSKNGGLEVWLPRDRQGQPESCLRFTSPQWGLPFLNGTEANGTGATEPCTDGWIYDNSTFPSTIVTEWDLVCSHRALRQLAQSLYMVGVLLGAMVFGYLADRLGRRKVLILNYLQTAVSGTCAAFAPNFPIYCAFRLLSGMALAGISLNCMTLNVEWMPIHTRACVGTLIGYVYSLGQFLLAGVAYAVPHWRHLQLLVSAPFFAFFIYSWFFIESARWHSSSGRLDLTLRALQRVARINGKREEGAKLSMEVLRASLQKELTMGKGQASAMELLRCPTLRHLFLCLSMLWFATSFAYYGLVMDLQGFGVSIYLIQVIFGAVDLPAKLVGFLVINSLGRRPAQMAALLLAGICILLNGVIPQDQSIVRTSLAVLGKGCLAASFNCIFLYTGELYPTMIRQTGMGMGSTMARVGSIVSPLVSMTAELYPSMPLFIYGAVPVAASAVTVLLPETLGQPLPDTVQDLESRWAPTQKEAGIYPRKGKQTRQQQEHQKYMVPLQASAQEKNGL
# Experimental: (§1) HEK293 cells overexpressing the OCT1, OCT2, OAT1, OAT3, OATP1B1, and OATP1B3 transporters (HEK293-OCT1, -OCT2, -OAT1, -OAT3, -OATP1B1, and -OATP1B3, respectively) and HEK293-mock cells (Corning Life Sciences; Woburn, MA, USA) were used and characterized as previously described.
# (§2) HEK293 cells overexpressing drug transporters and HEK293-mock cells were seeded in poly-D-lysine-coated 96-well plates at a density of 10^5 cells/well and were cultured in DMEM supplemented with 10% FBS, 5 mM non-essential amino acids, and 2 mM sodium butyrate in a humidified atmosphere with 8% CO2 at 37 °C.
# (§3) Then the uptake of probe substrates into HEK293-mock cells and HEK293-OCT1, -OCT2, -OAT1, -OAT3, -OATP1B1, and -OATP1B3 cells in the presence and absence of typical inhibitor or each ginsenoside with previously described concentration range was measured for 5 min. Immediately after placing the plates on ice, the cells were washed three times with 100 μL of ice-cold HBSS, followed by lysing with 50 μL of 10% SDS solution and mixing with 150 μL of Optiphase cocktail solution (Perkin Elmer Inc., Boston, MA, USA). The radioactivity of the probe substrates in the cells was determined using a liquid scintillation counter.
# (§4) In the inhibition studies, the uptake rate of substrate by HEK293 cells overexpressing the respective transporters was used as the control (100%) and the uptake rate of substrates in the presence of typical inhibitors or ginsenosides expressed as a percentage of the control. The inhibition data were fitted to an inhibitory effect model using Sigma plot (version 10.0; Systat Software Inc., San Jose, CA, USA). IC50 value indicated the half-maximal inhibitory concentration of the inhibitor.
# [2] = biological target: T2, OATP1B3 (Homo sapiens, UniProt Q9NPD5); experiment: Inhibition of OATP1B3-mediated [3H]estradiol-17β-D-glucuronide uptake in HEK293-OATP1B3 cells
# T2 sequence (Q9NPD5 1-702): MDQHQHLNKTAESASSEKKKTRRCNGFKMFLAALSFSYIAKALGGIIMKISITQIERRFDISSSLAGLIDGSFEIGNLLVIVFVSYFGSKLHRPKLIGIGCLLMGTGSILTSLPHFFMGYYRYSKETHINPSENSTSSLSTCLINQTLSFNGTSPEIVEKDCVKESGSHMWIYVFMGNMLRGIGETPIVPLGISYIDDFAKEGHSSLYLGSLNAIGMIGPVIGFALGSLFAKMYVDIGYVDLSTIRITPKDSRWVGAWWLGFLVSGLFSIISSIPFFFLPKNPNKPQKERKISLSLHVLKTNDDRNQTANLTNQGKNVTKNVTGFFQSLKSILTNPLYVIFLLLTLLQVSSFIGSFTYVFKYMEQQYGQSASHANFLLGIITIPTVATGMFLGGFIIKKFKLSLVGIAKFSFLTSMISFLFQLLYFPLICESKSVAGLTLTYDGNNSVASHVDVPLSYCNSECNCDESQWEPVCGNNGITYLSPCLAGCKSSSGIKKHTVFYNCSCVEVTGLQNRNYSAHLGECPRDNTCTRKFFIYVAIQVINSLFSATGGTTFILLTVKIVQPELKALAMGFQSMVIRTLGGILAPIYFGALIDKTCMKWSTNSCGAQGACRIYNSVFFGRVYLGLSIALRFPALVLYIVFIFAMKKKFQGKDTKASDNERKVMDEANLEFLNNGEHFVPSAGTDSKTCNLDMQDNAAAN
# Experimental: as §1, §2
# as §3, with “To examine the effects of ginsenosides and typical inhibitors on transporter activity, aliquots (100 μL) of HBSS containing the probe substrate and ginsenosides or typical inhibitors were added to the cells after aspirating pre-incubated HBSS. The concentrations and probe substrates were as follows: 0.1 μM [^3H]MPP^+ for OCT1 and OCT2, 0.1 μM [^3H]PAH for OAT1, 0.1 μM [^3H]ES for OAT3 and OATP1B1, and 0.1 μM [^3H]EG for OATP1B3. […] Then” for “Then”
# as §4
# [3] = biological target: T3, OCT2 (Homo sapiens, UniProt O15244); experiment: Inhibition of OCT2-mediated [3H]MPP+ uptake in HEK293-OCT2 cells
# T3 sequence (O15244 1-555): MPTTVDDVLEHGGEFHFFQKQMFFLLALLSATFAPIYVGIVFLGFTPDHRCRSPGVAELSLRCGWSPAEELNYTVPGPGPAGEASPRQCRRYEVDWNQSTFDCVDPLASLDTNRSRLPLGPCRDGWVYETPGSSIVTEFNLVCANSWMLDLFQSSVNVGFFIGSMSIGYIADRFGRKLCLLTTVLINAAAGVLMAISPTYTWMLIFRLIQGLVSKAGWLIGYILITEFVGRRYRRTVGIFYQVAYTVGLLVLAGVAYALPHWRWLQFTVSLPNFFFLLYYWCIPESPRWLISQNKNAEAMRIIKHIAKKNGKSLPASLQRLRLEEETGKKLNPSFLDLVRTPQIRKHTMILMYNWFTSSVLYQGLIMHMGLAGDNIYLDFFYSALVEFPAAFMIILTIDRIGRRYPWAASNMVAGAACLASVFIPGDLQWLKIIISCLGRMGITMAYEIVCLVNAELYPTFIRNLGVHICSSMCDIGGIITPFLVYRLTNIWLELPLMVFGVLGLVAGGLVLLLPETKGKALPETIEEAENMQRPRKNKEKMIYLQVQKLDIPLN
# Experimental: as §1, §2
# as §3, with “To examine the effects of ginsenosides and typical inhibitors on transporter activity, aliquots (100 μL) of HBSS containing the probe substrate and ginsenosides or typical inhibitors were added to the cells after aspirating pre-incubated HBSS. The concentrations and probe substrates were as follows: 0.1 μM [^3H]MPP^+ for OCT1 and OCT2, 0.1 μM [^3H]PAH for OAT1, 0.1 μM [^3H]ES for OAT3 and OATP1B1, and 0.1 μM [^3H]EG for OATP1B3. […] Then” for “Then”
# as §4
# [4] = read-out: IC50 OAT1, HEK293-OAT1, 0.1 μM [3H]PAH uptake, 5 min
# [5] = read-out: IC50 OATP1B3, HEK293-OATP1B3, 0.1 μM [3H]EG uptake, 5 min
# [6] = read-out: IC50 OCT2, HEK293-OCT2, 0.1 μM [3H]MPP+ uptake, 5 min
# [7] = HEK293-OATP1B3, 0.1 μM [3H]EG uptake, 5 min
IC50 [1] [µM],IC50 [2] [µM],"IC50 OATP1B3 [2, 7]",IC50 [3] [µM],SMILES,"IC50 [1, 4] [µM]","IC50 [2, 5] [µM]","IC50 [3, 6] [µM]"
> 100,> 100,did not inhibit,> 100,"CC(C)=CCC[C@](C)(O[C@@H]1O[C@H](CO)[C@@H](O)[C@H](O)[C@H]1O)[C@H]1CC[C@]2(C)[C@@H]1[C@H](O)C[C@@H]1[C@@]3(C)CC[C@H](O)C(C)(C)[C@@H]3[C@@H](O[C@@H]3O[C@H](CO)[C@@H](O)[C@H](O)[C@H]3O)C[C@]12C [Rg1, ginsenoside Rg1]",–,–,–
> 100,25.8,–,> 100,"CC(C)=CCC[C@](C)(O[C@@H]1O[C@H](CO)[C@@H](O)[C@H](O)[C@H]1O)[C@H]1CC[C@]2(C)[C@@H]1[C@H](O)C[C@@H]1[C@@]3(C)CC[C@H](O[C@@H]4O[C@H](CO)[C@@H](O)[C@H](O)[C@H]4O[C@@H]4O[C@H](CO)[C@@H](O)[C@H](O)[C@H]4O)C(C)(C)[C@@H]3CC[C@]12C [Rd, ginsenoside Rd]",–,–,–
> 100,> 100,did not inhibit,> 100,"CC(C)=CCC[C@](C)(O[C@@H]1O[C@H](CO)[C@@H](O)[C@H](O)[C@H]1O)[C@H]1CC[C@]2(C)[C@@H]1[C@H](O)C[C@@H]1[C@@]3(C)CC[C@H](O)C(C)(C)[C@@H]3[C@@H](O[C@@H]3O[C@H](CO)[C@@H](O)[C@H](O)[C@H]3O[C@@H]3O[C@@H](C)[C@H](O)[C@@H](O)[C@H]3O)C[C@]12C [Re, ginsenoside Re]",–,–,–
> 100,1.76,–,> 100,"CC(C)=CCC[C@](C)(O[C@@H]1O[C@H](CO[C@@H]2OC[C@H](O)[C@H](O)[C@H]2O)[C@@H](O)[C@H](O)[C@H]1O)[C@H]1CC[C@]2(C)[C@@H]1[C@H](O)C[C@@H]1[C@@]3(C)CC[C@H](O[C@@H]4O[C@H](CO)[C@@H](O)[C@H](O)[C@H]4O[C@@H]4O[C@H](CO)[C@@H](O)[C@H](O)[C@H]4O)C(C)(C)[C@@H]3CC[C@]12C [Rb2, ginsenoside Rb2]",–,–,–
> 100,1.36,–,> 100,"CC(C)=CCC[C@](C)(O[C@@H]1O[C@H](CO[C@@H]2O[C@@H](CO)[C@H](O)[C@H]2O)[C@@H](O)[C@H](O)[C@H]1O)[C@H]1CC[C@]2(C)[C@@H]1[C@H](O)C[C@@H]1[C@@]3(C)CC[C@H](O[C@@H]4O[C@H](CO)[C@@H](O)[C@H](O)[C@H]4O[C@@H]4O[C@H](CO)[C@@H](O)[C@H](O)[C@H]4O)C(C)(C)[C@@H]3CC[C@]12C [Rc, ginsenoside Rc]",–,–,–
> 100,2.28,–,> 100,"CC(C)=CCC[C@](C)(O[C@@H]1O[C@H](CO[C@@H]2O[C@H](CO)[C@@H](O)[C@H](O)[C@H]2O)[C@@H](O)[C@H](O)[C@H]1O)[C@H]1CC[C@]2(C)[C@@H]1[C@H](O)C[C@@H]1[C@@]3(C)CC[C@H](O[C@@H]4O[C@H](CO)[C@@H](O)[C@H](O)[C@H]4O[C@@H]4O[C@H](CO)[C@@H](O)[C@H](O)[C@H]4O)C(C)(C)[C@@H]3CC[C@]12C [Rb1, ginsenoside Rb1]",–,–,–

# Second part, the compound before the results:
SMILES,IC50 [1] [µM],IC50 [2] [µM],"IC50 OATP1B3 [2, 7]",IC50 [3] [µM],"IC50 [1, 4] [µM]","IC50 [2, 5] [µM]","IC50 [3, 6] [µM]"
"CC(C)=CCCC(C)(O)[C@H]1CC[C@]2(C)[C@@H]1[C@H](O)C[C@@H]1[C@@]3(C)CC[C@H](O)C(C)(C)[C@@H]3CC[C@]12C (stereo in doubt) [PPD, protopanaxadiol]",–,–,–,–,> 100,> 100,> 100
"CC(C)=CCC[C@](C)(O)[C@H]1CC[C@]2(C)[C@@H]1[C@H](O)C[C@@H]1[C@@]3(C)CC[C@H](O[C@@H]4O[C@H](CO)[C@@H](O)[C@H](O)[C@H]4O[C@@H]4O[C@H](CO)[C@@H](O)[C@H](O)[C@H]4O)C(C)(C)[C@@H]3CC[C@]12C [Rg3, ginsenoside Rg3]",–,–,–,–,> 100,5.13,> 100
"CC(C)=CCC[C@](C)(O)[C@H]1CC[C@]2(C)[C@@H]1[C@H](O)C[C@@H]1[C@@]3(C)CC[C@H](O)C(C)(C)[C@@H]3[C@@H](O[C@@H]3O[C@H](CO)[C@@H](O)[C@H](O)[C@H]3O)C[C@]12C [Rh1, ginsenoside Rh1]",> 100,> 100,did not inhibit,> 100,–,–,–
"CC(C)=CCC[C@](C)(O)[C@H]1CC[C@]2(C)[C@@H]1[C@H](O)C[C@@H]1[C@@]3(C)CC[C@H](O[C@@H]4O[C@H](CO)[C@@H](O)[C@H](O)[C@H]4O)C(C)(C)[C@@H]3CC[C@]12C [Rh2, ginsenoside Rh2]",> 100,30.8,–,> 100,–,–,–
"CC(C)=CCC[C@](C)(O[C@@H]1O[C@H](CO)[C@@H](O)[C@H](O)[C@H]1O)[C@H]1CC[C@]2(C)[C@@H]1[C@H](O)C[C@@H]1[C@@]3(C)CC[C@H](O)C(C)(C)[C@@H]3CC[C@]12C [Compound K, compound K]",–,–,–,–,> 100,8.25,> 100
"CC(C)=CCC[C@](C)(O)[C@H]1CC[C@]2(C)[C@@H]1[C@H](O)C[C@@H]1[C@@]3(C)CC[C@H](O)C(C)(C)[C@@H]3[C@@H](O)C[C@]12C [PPT, protopanaxatriol]",–,–,–,–,> 100,20.3,> 100
